Source: patent US20210030869A1, “DOSING REGIMEN FOR AN IDO INHIBITOR” (Incyte Corporation, priority 2019, published 2021)
“Also recorded” adds a separate entry of the source. Read-outs that look alike come from different tables or passages of the source.

Legend:
endometrial cancer = conditions: cited from earlier work
[1] = Safety and dose-limiting toxicity in Phase 1b dose-finding study (INCMGA 0012-102); type: in vivo; conditions: epacadostat 900 mg BID with ANTIBODY X 500 mg Q4W
Source text: The study is an open-label, nonrandomized, multicenter, Phase 1b study with independent treatment groups.
For dose escalation, a Bayesian optimal interval (BOIN) design with a cohort size of approximately 3 evaluable participants is used. The target rate of dose-limiting toxicities (DLTs) is assumed to be 30% for each combination. At each dose level, a maximum of 9 participants are enrolled.
Participants in the dose-escalation cohorts are observed for 28 days for occurrence of DLTs.
The MTD is defined as the highest dose at which less than approximately one-third of the participants have a DLT. Dose-limiting toxicities occurring during the first 28 days of treatment guide dose escalation and determination of the MTD and RP2D. In addition, participants with late-onset safety events meeting the definition of DLT or those who had intolerable, lower grade persistent toxicity determined to be attributable to either study drug (e.g., Grade 2 peripheral neuropathy) are considered in the selection of each combination RP2D. […]
A DLT is defined as the occurrence of any of the toxicities listed in Table 4 that are possibly, probably, or definitely due to study treatment occurring from the start of treatment up to and including Day 28. All DLTs will be assessed by the investigator using Common Terminology Criteria for Adverse Events: Version 5 (CTCAE v5) criteria. […]

[2] = test system: plasma kynurenine levels (IDO1 inhibition)
Procedure: Clinical laboratory tests are performed, including measurement of kynurenine levels in blood plasma and tumor samples.
Plasma kynurenine levels were measured by an LC-MS/MS method at World Wide Clinical Trials, Inc. Patient samples were obtained pre-dose and at defined times following treatment.
Plasma kynurenine was measured pre-treatment (C1D1) and at the indicated visits.

[3] = MSI-H or MMR deficient endometrial cancer progressed on prior therapy
[4] = first line therapy in advanced endometrial cancer

Q: Which “RR (response rate)” value (endometrial cancer; endometrial cancer patients previously treated with combination of cisplatinum and doxorubicin) does the source give for CC(=O)O[C@H]1C(=O)[C@@]2(C)[C@H]([C@H](OC(=O)c3ccccc3)[C@]3(O)C[C@H](OC(=O)[C@H](O)[C@@H](NC(=O)c4ccccc4)c4ccccc4)C(C)=C1C3(C)C)[C@]1(OC(C)=O)CO[C@@H]1C[C@@H]2O [Paclitaxel] here?
A: The value was 25%.

Q: Which “RR (response rate)” value (endometrial cancer; endometrial cancer patients treated with paclitaxel in first line therapy) does the source give for CC(=O)O[C@@]12CO[C@@H]1C[C@H](O)[C@@]1(C)C(=O)[C@H](O)C3=C(C)[C@@H](OC(=O)[C@H](O)[C@@H](NC(=O)OC(C)(C)C)c4ccccc4)C[C@@](O)([C@@H](OC(=O)c4ccccc4)[C@H]21)C3(C)C [docetaxel] here?
A: The value was 8%.

Q: With NS(=O)(=O)NCCNc1nonc1C(=NO)Nc1ccc(F)c(Br)c1 [epacadostat, 4-({2-[(aminosulfonyl)amino]ethyl}amino)-N-(3-bromo-4-fluorophenyl)-N′-hydroxy-1,2,5-oxadiazole-3-carboximidamide] as the molecule, how does the “maximum tolerated dose (MTD) assessment” value [1] read?
A: Its value is “exceeded the MTD”.

Q: And the “reductions in plasma kynurenine levels compared to Group 1” value ([2]; 600 mg BID epacadostat (Group 2) vs 100 mg BID (Group 1), with ANTIBODY X 500 mg Q4W, day 8 of treatment, solid tumor patients, 3 per group)?
A: The value was “increased reductions in plasma kynurenine levels”.

Q: What about the “patients showing sustained reductions in plasma kynurenine” value ([2]; 600 mg BID epacadostat with ANTIBODY X 500 mg Q4W, after 5 weeks of treatment) of the same molecule?
A: The value was 2/3.

Q: And the “decreases in plasma kynurenine over visits (FIG. 1)” value ([2]; epacadostat 600 mg BID with ANTIBODY X, pre-treatment (C1D1) vs later visits)?
A: Its value is “sustained (up to 4 months) decreases in plasma kyn in most patients; also recorded: sustained (up to 4 months) decreases in plasma kynurenine levels in most patients”.

Q: What about the normalization of kynurenine ([2]; epacadostat 600 mg BID with ANTIBODY X, preliminary observations) of the same molecule?
A: Its normalization of kynurenine is “durable normalization of kynurenine”.

Q: For “Pembrolizumab: another anti-PD-1 antibody”, which “ORR for EC” value (endometrial cancer; [3]) is on record?
A: The value was 36%.

Q: And the duration of response (endometrial cancer; [3])?
A: The duration of response was 4-17 months.

Q: With carboplatin and paclitaxel as the molecule, how does the ORR (endometrial cancer; [4]) read?
A: The ORR was “approximately 50%”.

Q: What about the OS (endometrial cancer; [4]) of the same molecule?
A: Its OS is 3 years.

Q: What about the PFS (endometrial cancer; [4]) of the same molecule?
A: Its PFS is 13 months.
